Each block holds one molecule with its values, some of them ahead of it. Starred links: 1 amine or outer side, 2 acyl side, 3 side chain; linkers in the order of their positions; H or OH if unused. Positions of bridges follow the written chain, without caps; N, C: chain ends. Non-standard residues stand in square brackets, D forms with d. Residues, ends and D or L forms follow the SMILES beside them. Trp(2-yl) = O=C([C@H](Cc1c([*:3])[nH]c2ccccc12)N[*:1])[*:2]; Leu(4R-OH,5-OH) = C[C@](O)(CO)C[C@H](N)C(=O)O; cisHyp = O=C(O)[C@@H]1C[C@H](O)CN1
Legend:
OATP1B1 [1] = biological target: T1, OATP1B1 (Homo sapiens, UniProt Q9Y6L6); experiment: Screening for inhibition of OATP1B1-mediated estradiol-17β-glucuronide uptake; details: for Classification as OATP1B1 inhibitor (more than 50% inhibition of E17βG uptake): 20 μM test compound
T1 sequence (Q9Y6L6 1-691): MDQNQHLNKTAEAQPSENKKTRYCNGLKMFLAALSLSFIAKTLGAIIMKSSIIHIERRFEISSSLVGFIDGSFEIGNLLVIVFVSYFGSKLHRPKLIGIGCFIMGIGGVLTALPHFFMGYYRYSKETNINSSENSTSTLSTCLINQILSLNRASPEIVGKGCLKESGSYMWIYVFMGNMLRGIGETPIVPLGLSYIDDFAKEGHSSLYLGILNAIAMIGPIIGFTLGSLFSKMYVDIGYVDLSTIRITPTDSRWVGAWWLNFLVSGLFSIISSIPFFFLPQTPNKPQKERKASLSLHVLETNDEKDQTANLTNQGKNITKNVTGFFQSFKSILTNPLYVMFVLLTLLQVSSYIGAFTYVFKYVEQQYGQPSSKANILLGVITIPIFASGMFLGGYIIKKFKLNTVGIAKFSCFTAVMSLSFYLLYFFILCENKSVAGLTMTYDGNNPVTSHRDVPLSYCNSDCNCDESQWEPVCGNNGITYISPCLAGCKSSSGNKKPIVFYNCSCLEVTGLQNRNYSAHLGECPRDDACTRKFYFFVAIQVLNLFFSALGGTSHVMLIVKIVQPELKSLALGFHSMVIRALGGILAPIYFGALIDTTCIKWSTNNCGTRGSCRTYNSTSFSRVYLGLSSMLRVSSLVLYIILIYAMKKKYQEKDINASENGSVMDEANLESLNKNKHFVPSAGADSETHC

OATP1B1 [2] = biological target: T1, OATP1B1; experiment: Concentration-dependent inhibition of OATP1B1-mediated atorvastatin uptake; assay type: cell-based
OATP1B1 [3] = biological target: T1, OATP1B1; experiment: Calculation of R-values
[4] = clinical co-administration with the inhibitor; ref [37],[27],[43],[51],[46]; cited from earlier work
[5] = cited from earlier work; for Fa, fraction of the inhibitor dose absorbed (maximum oral bioavailability): ref [23]–[25]
[6] = ref [3],[23],[24]; cited from earlier work
[7] = human, pH 7.4, Inhibition of E17βG uptake, 100 μM test compound (data not shown)

Classification as OATP1B1 inhibitor (more than 50% inhibition of E17βG uptake) (OATP1B1 [1]): inhibitors
Molecule: COC(=O)[C@H]1[C@H]2C[C@@H]3c4[nH]c5cc(OC)ccc5c4CCN3C[C@H]2C[C@@H](OC(=O)c2cc(OC)c(OC)c(OC)c2)[C@@H]1OC [Reserpine]

Classification as OATP1B1 inhibitor (more than 50% inhibition of E17βG uptake) (OATP1B1 [1]): inhibitors
Molecule: COc1ccc2c(c1)c(CC(=O)O)c(C)n2C(=O)c1ccc(Cl)cc1 [Indomethacin]

Classification as OATP1B1 inhibitor (more than 50% inhibition of E17βG uptake) (OATP1B1 [1]): inhibitors
Molecule: CC[C@]1(O)C[C@@H]2CN(CCc3c([nH]c4ccccc34)[C@@](C(=O)OC)(c3cc4c(cc3OC)N(C)[C@H]3[C@@](O)(C(=O)OC)[C@H](OC(C)=O)[C@]5(CC)C=CCN6CC[C@]43[C@@H]65)C2)C1 [Vinblastine]

inhibition at 5 min, 100 µM (OATP1B1 [1]; [7]): 32%
Molecule: CC1(C)S[C@@H]2[C@H](NC(=O)Cc3ccccc3)C(=O)N2[C@H]1C(=O)O [Penicillin G]

Classification as OATP1B1 inhibitor (more than 50% inhibition of E17βG uptake) (OATP1B1 [1]): inhibitors
Molecule: CC/C(=C(/CC)c1ccc(O)cc1)c1ccc(O)cc1 [Diethylstilbestrol]

Classification as OATP1B1 inhibitor (more than 50% inhibition of E17βG uptake) (OATP1B1 [1]): classified as OATP1B1 inhibitors
Molecule: CCOc1cc(CC(=O)N[C@@H](CC(C)C)c2ccccc2N2CCCCC2)ccc1C(=O)O [Repaglinide]

IC50 (OATP1B1 [2]): 156 µM | Ki (OATP1B1 [2]): 68.1 µM | R-value B (OATP1B1 [3]; Eq. 2 (IC50), ka = 0.03, Fa = 1, International Transporter Consortium method): 1.05 | R-value D (OATP1B1 [3]; Eq. 2 (IC50), ka = 0.1, Fa = 1): 1.08 | R-value C (OATP1B1 [3]; Eq. 2 (IC50), ka = 0.1, Fa published value (lopinavir Fa = 1)): 1.08 | R-value F (OATP1B1 [3]; Eq. 3 (Ki), ka = 0.03, Fa = 1): 1.11 | R-value E (OATP1B1 [3]; Eq. 3 (Ki), ka = 0.03, Fa published value (lopinavir Fa = 1)): 1.11 | R-value H (OATP1B1 [3]; Eq. 3 (Ki), ka = 0.1, Fa = 1, Hirano et al. method): 1.19 | R-value G (OATP1B1 [3]; Eq. 3 (Ki), ka = 0.1, Fa published value (lopinavir Fa = 1)): 1.19 | Range of the eight R-values A–H (OATP1B1 [3]; all eight calculation variants): 1.05–1.19 | Average (mean) R-value (OATP1B1 [3]; mean of the eight R-values A–H): 1.11
Molecule: Cc1ccc(C)c(OCCCC(C)(C)C(=O)O)c1 [Gemfibrozil]
Fold AUC change Atorvastatin [4]: 1.2 fold | Imax, maximum systemic plasma concentration of the inhibitor ([5]; amprenavir recalculated from fosamprenavir data, ref [23]–[28]): 99.9 µM | Fa, fraction of the inhibitor dose absorbed (maximum oral bioavailability) [5]: 0.98 | Fu, fraction of the inhibitor that is unbound [6]: 0.05

Classification as OATP1B1 inhibitor (more than 50% inhibition of E17βG uptake) (OATP1B1 [1]): not identified as inhibitors | inhibition at 5 min, 75 µM (OATP1B1 [1]; human, pH 7.4, Inhibition of E17βG uptake, 75 μM test compound (data not shown)): > 50% | inhibition at 5 min, 100 µM (OATP1B1 [1]; [7]): > 50%
Molecule: N[C@@H](Cc1cc(I)c(Oc2cc(I)c(O)c(I)c2)c(I)c1)C(=O)O [Levothyroxin]

Classification as OATP1B1 inhibitor (more than 50% inhibition of E17βG uptake) (OATP1B1 [1]): inhibitors
Molecule: Ivermectin

Classification as OATP1B1 inhibitor (more than 50% inhibition of E17βG uptake) (OATP1B1 [1]): inhibitors
Molecule: CC(=O)S[C@@H]1CC2=CC(=O)CC[C@]2(C)[C@H]2CC[C@@]3(C)[C@@H](CC[C@@]34CCC(=O)O4)[C@H]12 [Spironolactone]

Inhibition of atorvastatin uptake (in words) (OATP1B1 [2]; investigated concentration interval 0.1–100 μM, 1 μM atorvastatin): did not inhibit atorvastatin uptake
Molecule: CC(C)OC(=O)C(C)(C)Oc1ccc(C(=O)c2ccc(Cl)cc2)cc1 [Fenofibrate]
Fa, fraction of the inhibitor dose absorbed (maximum oral bioavailability) [5]: 0.81

Molecule: C[C@@H]1NC(=O)[C@H](C[C@@](C)(O)CO)NC(=O)[C@@H]2Cc3c([nH]c4ccccc34)SC[C@H](NC(=O)[C@@H]([C@H](C)O)NC1=O)C(=O)N1C[C@@H](O)C[C@H]1C(=O)N[C@@H](C)C(=O)N2 [Phalloidin] (cyclo(A[dT]C[cisHyp]A[Trp(2-yl)][Leu(4R-OH,5-OH)]); thioether 3-6)
Classification as OATP1B1 inhibitor (more than 50% inhibition of E17βG uptake) (OATP1B1 [1]): not identified as inhibitors | inhibition at 5 min, 100 µM (OATP1B1 [1]; human, pH 7.4): 49%

Classification as OATP1B1 inhibitor (more than 50% inhibition of E17βG uptake) (OATP1B1 [1]): inhibitors
Molecule: O=C(O)c1cc(/N=N/c2ccc(S(=O)(=O)Nc3ccccn3)cc2)ccc1O [Sulfasalazine]

Classification as OATP1B1 inhibitor (more than 50% inhibition of E17βG uptake) (OATP1B1 [1]): inhibitors
Molecule: C[C@H](CCC(=O)NCC(=O)O)[C@H]1CC[C@H]2[C@@H]3[C@H](O)C[C@@H]4C[C@H](O)CC[C@]4(C)[C@H]3CC[C@]12C [Glycochenodeoxycholate]
